Measured values: US8952024B2, “Herbicidal pyrimidone derivatives” (E I du Pont de Nemours and Company, priority 2009, dated 2015)
Like-named read-outs stand apart in the source and are kept apart here.

Tests used:
Assay type in all cases: in vivo
[1] = system: barnyardgrass (Echinochloa crus-galli); assay: Test B flooded paddy test
How it was run: (§1)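 Visual scores run from 0 (no effect) to 100 (complete control), assigned by comparison with controls 13 to 15 days after treatment. Test compounds went straight into water standing 3 cm above the soil, around plants at the 2-leaf stage kept in a greenhouse.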

[2] = system: umbrella sedge (Cyperus difformis); assay: Test B flooded paddy test
How it was run: as §1

[3] = system: ducksalad (Heteranthera limosa); assay: Test B flooded paddy test
How it was run: as §1

[4] = system: rice (Oryza sativa); assay: Test B flooded paddy test
How it was run: as §1

[5] = system: velvetleaf (Abutilon theophrasti); assay: Test A pre-/postemergence plant response; conditions: Abutilon theophrasti, 240 h; for pest or weed control at 125 g/ha: 125 g ai/ha; for pest or weed control at 500 g/ha: 500 g ai/ha
How it was run: (§2)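 Plants grown from seed in a loam soil and sand mix received test compounds both as a preemergence soil spray and, at the same time, as a postemergence spray at the one- to two-leaf stage. Injury was judged visually against untreated controls roughly ten days later, 0 meaning no effect and 100 complete control.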

[6] = system: barnyardgrass (Echinochloa crus-galli); assay: Test A pre-/postemergence plant response; conditions: Echinochloa crus-galli, 240 h; for pest or weed control at 125 g/ha: 125 g ai/ha; for pest or weed control at 500 g/ha: 500 g ai/ha
How it was run: as §2

[7] = system: pigweed (Amaranthus retroflexus); assay: Test A pre-/postemergence plant response; conditions: Amaranthus retroflexus, 240 h; for pest or weed control at 125 g/ha: 125 g ai/ha; for pest or weed control at 500 g/ha: 500 g ai/ha
How it was run: as §2

[8] = system: giant foxtail (Setaria faberii); assay: Test A pre-/postemergence plant response; conditions: Setaria faberi, 240 h; for pest or weed control at 125 g/ha: 125 g ai/ha; for pest or weed control at 500 g/ha: 500 g ai/ha
How it was run: as §2

[9] = system: wheat (Triticum aestivum); assay: Test A pre-/postemergence plant response; conditions: Triticum aestivum, 240 h; for plant injury at 125 g/ha: 125 g ai/ha; for plant injury at 500 g/ha: 500 g ai/ha
How it was run: as §2

[10] = system: morningglory (Ipomoea spp.); assay: Test A pre-/postemergence plant response; conditions: Ipomoea, 240 h; for pest or weed control at 125 g/ha: 125 g ai/ha, read-out: Plant response rating, Morningglory
How it was run: as §2

[11] = system: corn (Zea mays); assay: Test A pre-/postemergence plant response; conditions: Zea mays, 240 h; for Corn plant response rating (crop injury, 0 = no effect, 100 = complete kill) at 125 g/ha: 125 g ai/ha
How it was run: as §2

[12] = system: large crabgrass (Digitaria sanguinalis); assay: Test A pre-/postemergence plant response; conditions: Digitaria sanguinalis, 240 h; for pest or weed control at 125 g/ha: 125 g ai/ha; for pest or weed control at 500 g/ha: 500 g ai/ha
How it was run: as §2

[13] = Flood, 31 g ai/ha, scale 0 to 100 (0 no effect, 100 complete control)
[14] = pre-emergence, Preemergence, 0 to 100 scale, 0 = no effect, 100 = complete control, read-out: Plant response rating, Velvetleaf
[15] = pre-emergence, Preemergence, 0 to 100 scale, 0 = no effect, 100 = complete control, read-out: Plant response rating, Barnyardgrass
[16] = pre-emergence, Preemergence, 0 to 100 scale, 0 = no effect, 100 = complete control, read-out: Plant response rating, Pigweed
[17] = pre-emergence, Preemergence, 0 to 100 scale, 0 = no effect, 100 = complete control, read-out: Plant response rating, Foxtail, Giant
[18] = pre-emergence, Preemergence, 0 to 100 scale, 0 = no effect, 100 = complete control, read-out: Plant response rating, Wheat
[19] = post-emergence, Postemergence, 0 to 100 scale where 0 is no effect and 100 is complete control
[20] = pre-emergence, Preemergence, 0 to 100 scale, 0 = no effect, 100 = complete control
[21] = pre-emergence, Preemergence, 0 to 100 scale, 0 = no effect, 100 = complete control, read-out: Plant response rating, Crabgrass, Large

O=C(c1cnoc1C1CC1)c1cnc(-c2ccccc2)n(-c2ccccc2)c1=O [Compound 223, 5-[(5-cyclopropyl-4-isoxazolyl)-carbonyl]-2,3-diphenyl-4(3H)-pyrimidinone]
pest or weed control at 250 g/ha ([1]; Echinochloa crus-galli, 360 h, 250 g ai/ha, flooded paddy test, visual rating on 0 to 100 scale (0 no effect, 100 complete control) after 13 to 15 days, read-out: Plant response rating, Flood, Barnyardgrass): 0% | pest or weed control at 62 g/ha ([1]; Echinochloa crus-galli, 360 h, Flood (flooded paddy test), 62 g ai/ha, scale of 0 to 100 where 0 is no effect and 100 is complete control, 13 to 15 days, read-out: Plant response rating, Barnyardgrass): 0% | pest or weed control at 125 g/ha ([1]; Echinochloa crus-galli, 360 h, Flood (flooded paddy test), 125 g ai/ha, scale 0 to 100, 0 is no effect, 100 is complete control, 13 to 15 days, read-out: Plant response rating, Barnyardgrass): 0% | Barnyardgrass plant response rating [1, 13]: 0 | pest or weed control at 250 g/ha ([2]; Cyperus difformis, 360 h, 250 g ai/ha, flooded paddy test, visual rating on 0 to 100 scale (0 no effect, 100 complete control) after 13 to 15 days, read-out: Plant response rating, Flood, Sedge, Umbrella): 0% | pest or weed control at 62 g/ha ([2]; Cyperus difformis, 360 h, Flood (flooded paddy test), 62 g ai/ha, scale of 0 to 100 where 0 is no effect and 100 is complete control, 13 to 15 days, read-out: Plant response rating, Sedge, Umbrella): 0% | pest or weed control at 125 g/ha ([2]; Cyperus difformis, 360 h, Flood (flooded paddy test), 125 g ai/ha, scale 0 to 100, 0 is no effect, 100 is complete control, 13 to 15 days, read-out: Plant response rating, Sedge, Umbrella): 0% | Sedge, Umbrella plant response rating [2, 13]: 0 | Ducksalad plant response rating [3, 13]: 0 | pest or weed control at 250 g/ha ([3]; Heteranthera limosa, 360 h, 250 g ai/ha, flooded paddy test, visual rating on 0 to 100 scale (0 no effect, 100 complete control) after 13 to 15 days, read-out: Plant response rating, Flood, Ducksalad): 0% | pest or weed control at 62 g/ha ([3]; Heteranthera limosa, 360 h, Flood (flooded paddy test), 62 g ai/ha, scale of 0 to 100 where 0 is no effect and 100 is complete control, 13 to 15 days, read-out: Plant response rating, Ducksalad): 0% | pest or weed control at 125 g/ha ([3]; Heteranthera limosa, 360 h, Flood (flooded paddy test), 125 g ai/ha, scale 0 to 100, 0 is no effect, 100 is complete control, 13 to 15 days, read-out: Plant response rating, Ducksalad): 0% | Rice plant response rating [4, 13]: 0 | plant injury at 250 g/ha ([4]; Oryza sativa, 250 g ai/ha, flooded paddy test, visual rating on 0 to 100 scale (0 no effect, 100 complete control) after 13 to 15 days, read-out: Plant response rating, Flood, Rice): 0% | plant injury at 62 g/ha ([4]; Oryza sativa, Flood (flooded paddy test), 62 g ai/ha, scale of 0 to 100 where 0 is no effect and 100 is complete control, 13 to 15 days, read-out: Plant response rating, Rice): 0% | plant injury at 125 g/ha ([4]; Oryza sativa, Flood (flooded paddy test), 125 g ai/ha, scale 0 to 100, 0 is no effect, 100 is complete control, 13 to 15 days, read-out: Plant response rating, Rice): 0% | pest or weed control at 125 g/ha ([5]; post-emergence, Postemergence, 0 to 100 scale where 0 is no effect and 100 is complete control, read-out: Plant response rating, Velvetleaf): 50% | pest or weed control at 500 g/ha ([5]; post-emergence, Postemergence, visual injury, 0 to 100 scale (0 no effect, 100 complete control), approx. ten days, read-out: Velvetleaf plant response rating): 80% | pest or weed control at 125 g/ha [5, 14]: 0% | pest or weed control at 500 g/ha [5, 14]: 60% | pest or weed control at 125 g/ha ([6]; post-emergence, Postemergence, 0 to 100 scale where 0 is no effect and 100 is complete control, read-out: Plant response rating, Barnyardgrass): 0% | pest or weed control at 500 g/ha ([6]; post-emergence, Postemergence, visual injury, 0 to 100 scale (0 no effect, 100 complete control), approx. ten days, read-out: Barnyardgrass plant response rating): 50% | pest or weed control at 125 g/ha [6, 15]: 0% | pest or weed control at 500 g/ha [6, 15]: 70% | pest or weed control at 125 g/ha ([7]; post-emergence, Postemergence, 0 to 100 scale where 0 is no effect and 100 is complete control, read-out: Plant response rating, Pigweed): 50% | pest or weed control at 500 g/ha ([7]; post-emergence, Postemergence, visual injury, 0 to 100 scale (0 no effect, 100 complete control), approx. ten days, read-out: Pigweed plant response rating): 70% | pest or weed control at 125 g/ha [7, 16]: 60% | pest or weed control at 500 g/ha [7, 16]: 90% | pest or weed control at 125 g/ha ([8]; post-emergence, Postemergence, 0 to 100 scale where 0 is no effect and 100 is complete control, read-out: Plant response rating, Foxtail, Giant): 0% | pest or weed control at 500 g/ha ([8]; post-emergence, Postemergence, visual injury, 0 to 100 scale (0 no effect, 100 complete control), approx. ten days, read-out: Foxtail, Giant plant response rating): 70% | pest or weed control at 125 g/ha [8, 17]: 30% | pest or weed control at 500 g/ha [8, 17]: 90% | plant injury at 125 g/ha ([9]; post-emergence, Postemergence, 0 to 100 scale where 0 is no effect and 100 is complete control, read-out: Plant response rating, Wheat): 0% | plant injury at 500 g/ha ([9]; post-emergence, Postemergence, visual injury, 0 to 100 scale (0 no effect, 100 complete control), approx. ten days, read-out: Wheat plant response rating): 0% | plant injury at 125 g/ha [9, 18]: 0% | plant injury at 500 g/ha [9, 18]: 0% | pest or weed control at 125 g/ha [10, 19]: 60% | pest or weed control at 500 g/ha ([10]; post-emergence, Postemergence, 500 g ai/ha, visual injury, 0 to 100 scale (0 no effect, 100 complete control), approx. ten days, read-out: Morningglory plant response rating): 80% | pest or weed control at 125 g/ha [10, 20]: 10% | Corn plant response rating (crop injury, 0 = no effect, 100 = complete kill) at 125 g/ha [11, 19]: 0% | plant injury at 500 g/ha ([11]; post-emergence, Postemergence, 500 g ai/ha, visual injury, 0 to 100 scale (0 no effect, 100 complete control), approx. ten days, read-out: Corn plant response rating): 20% | Corn plant response rating (crop injury, 0 = no effect, 100 = complete kill) at 125 g/ha [11, 20]: 0% | Corn plant response rating (crop injury, 0 = no effect, 100 = complete kill) at 500 g/ha ([11]; pre-emergence, Preemergence, 500 g ai/ha, 0 to 100 scale, 0 = no effect, 100 = complete control): 0% | pest or weed control at 125 g/ha ([12]; post-emergence, Postemergence, 0 to 100 scale where 0 is no effect and 100 is complete control, read-out: Plant response rating, Crabgrass, Large): 0% | pest or weed control at 500 g/ha ([12]; post-emergence, Postemergence, visual injury, 0 to 100 scale (0 no effect, 100 complete control), approx. ten days, read-out: Crabgrass, Large plant response rating): 60% | pest or weed control at 125 g/ha [12, 21]: 30% | pest or weed control at 500 g/ha [12, 21]: 80%
